Experimental data as given in patent US20250145606A1 (Arcus Biosciences, Inc., priority 2023, published 2025).
pIC50: −log10 of the molar value.

Tests used:
[1] = target: c-Kit (Homo sapiens (Human), UniProt P10721); experiment: Inhibition of c-Kit kinase activity (HTRF KinEASE-TK); assay type: biochemical; settings: biochemical, HTRF KinEASE-TK
In short: (§1)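 Human kinases were preincubated 1 h at rt with a 22-point 1:2 compound titration, then run 120 min at rt with biotinylated TK peptide and ATP (2× mix: c-Kit 16 μM, PDGFRα 1 μM, PDGFRβ 40 μM, CSF1R 20 μM). Phosphopeptide was read by HTRF TR-FRET (665/620 nm), and IC50s came from 4-parameter fits.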

[2] = target: CSF1R (Homo sapiens (Human), UniProt P07333); experiment: Inhibition of CSF1R kinase activity (HTRF KinEASE-TK); settings: biochemical, HTRF KinEASE-TK
In short: as §1

[3] = target: FLT3 (Homo sapiens (Human), UniProt P36888); experiment: Inhibition of FLT3 kinase activity (HTRF KinEASE-TK); assay type: biochemical; settings: biochemical, HTRF KinEASE-TK
In short: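 FLT3 tyrosine kinase activity was measured with the HTRF KinEASE-TK kit by following phosphorylation of a biotinylated TK peptide. After the 45 min reaction, 10 μL of detection mix was added: 0.2 μM (2×) Streptavidin-XL665 and 2 μM (2×) TK-Antibody-Cryptate in detection buffer. After 60 min, TR-FRET was read on an Envision as the 665 nm/620 nm emission ratio with 320 nm excitation.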

[4] = tested on: Phospho-KIT (Y703) in M07e cells; experiment: Phospho-KIT (Y703) cellular assay in M07e cells; assay type: cell-based; settings: M-07e; Phospho-KIT (Y703), M07e cells; read-out: M07e Cell IC50
In short: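 Serum-starved M07e cells preincubated 50 min at 37° C with 11-point half-log compound titration, then stimulated 10 min with SCF at 90.9 ng/mL final. Fixed, permeabilized cells stained for phospho-KIT Y703 and read by flow cytometry (live-gated geometric mean); IC50 by 4-parameter fit normalized to DMSO and positive control.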

[5] = target: PDGFRβ (Homo sapiens (Human), UniProt P09619); experiment: Inhibition of PDGFRβ kinase activity (HTRF KinEASE-TK); settings: biochemical, HTRF KinEASE-TK
In short: as §1

[6] = target: PDGFRα (Homo sapiens (Human), UniProt P16234); experiment: Inhibition of PDGFRα kinase activity (HTRF KinEASE-TK); settings: biochemical, HTRF KinEASE-TK
In short: as §1

Chain of FLT3 (P36888 27-993): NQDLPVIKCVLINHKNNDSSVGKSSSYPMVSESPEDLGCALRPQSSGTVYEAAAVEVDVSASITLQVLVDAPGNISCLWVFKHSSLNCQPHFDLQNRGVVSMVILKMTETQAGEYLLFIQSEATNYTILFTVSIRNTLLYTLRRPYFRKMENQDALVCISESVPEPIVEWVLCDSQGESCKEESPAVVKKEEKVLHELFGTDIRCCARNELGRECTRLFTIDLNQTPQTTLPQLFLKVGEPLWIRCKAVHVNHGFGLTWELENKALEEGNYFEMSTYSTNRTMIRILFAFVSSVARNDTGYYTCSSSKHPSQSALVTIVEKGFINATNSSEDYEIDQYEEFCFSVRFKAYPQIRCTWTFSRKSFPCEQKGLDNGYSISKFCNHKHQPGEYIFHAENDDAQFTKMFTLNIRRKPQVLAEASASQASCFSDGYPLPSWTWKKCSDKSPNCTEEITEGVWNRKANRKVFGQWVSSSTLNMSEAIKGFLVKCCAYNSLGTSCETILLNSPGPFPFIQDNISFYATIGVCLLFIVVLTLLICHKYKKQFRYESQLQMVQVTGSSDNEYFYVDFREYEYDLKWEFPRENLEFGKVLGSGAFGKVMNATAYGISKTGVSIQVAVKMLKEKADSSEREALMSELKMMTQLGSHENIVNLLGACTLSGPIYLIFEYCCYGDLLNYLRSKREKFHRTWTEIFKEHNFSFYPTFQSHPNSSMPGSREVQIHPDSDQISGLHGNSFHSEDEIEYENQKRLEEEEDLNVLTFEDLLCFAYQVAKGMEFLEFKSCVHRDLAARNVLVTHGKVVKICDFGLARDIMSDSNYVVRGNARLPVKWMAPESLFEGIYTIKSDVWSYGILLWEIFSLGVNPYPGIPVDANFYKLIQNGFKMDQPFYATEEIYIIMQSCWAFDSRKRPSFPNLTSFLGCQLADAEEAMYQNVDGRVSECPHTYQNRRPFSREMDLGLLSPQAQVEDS
Chain of PDGFRβ (P09619 33-1106): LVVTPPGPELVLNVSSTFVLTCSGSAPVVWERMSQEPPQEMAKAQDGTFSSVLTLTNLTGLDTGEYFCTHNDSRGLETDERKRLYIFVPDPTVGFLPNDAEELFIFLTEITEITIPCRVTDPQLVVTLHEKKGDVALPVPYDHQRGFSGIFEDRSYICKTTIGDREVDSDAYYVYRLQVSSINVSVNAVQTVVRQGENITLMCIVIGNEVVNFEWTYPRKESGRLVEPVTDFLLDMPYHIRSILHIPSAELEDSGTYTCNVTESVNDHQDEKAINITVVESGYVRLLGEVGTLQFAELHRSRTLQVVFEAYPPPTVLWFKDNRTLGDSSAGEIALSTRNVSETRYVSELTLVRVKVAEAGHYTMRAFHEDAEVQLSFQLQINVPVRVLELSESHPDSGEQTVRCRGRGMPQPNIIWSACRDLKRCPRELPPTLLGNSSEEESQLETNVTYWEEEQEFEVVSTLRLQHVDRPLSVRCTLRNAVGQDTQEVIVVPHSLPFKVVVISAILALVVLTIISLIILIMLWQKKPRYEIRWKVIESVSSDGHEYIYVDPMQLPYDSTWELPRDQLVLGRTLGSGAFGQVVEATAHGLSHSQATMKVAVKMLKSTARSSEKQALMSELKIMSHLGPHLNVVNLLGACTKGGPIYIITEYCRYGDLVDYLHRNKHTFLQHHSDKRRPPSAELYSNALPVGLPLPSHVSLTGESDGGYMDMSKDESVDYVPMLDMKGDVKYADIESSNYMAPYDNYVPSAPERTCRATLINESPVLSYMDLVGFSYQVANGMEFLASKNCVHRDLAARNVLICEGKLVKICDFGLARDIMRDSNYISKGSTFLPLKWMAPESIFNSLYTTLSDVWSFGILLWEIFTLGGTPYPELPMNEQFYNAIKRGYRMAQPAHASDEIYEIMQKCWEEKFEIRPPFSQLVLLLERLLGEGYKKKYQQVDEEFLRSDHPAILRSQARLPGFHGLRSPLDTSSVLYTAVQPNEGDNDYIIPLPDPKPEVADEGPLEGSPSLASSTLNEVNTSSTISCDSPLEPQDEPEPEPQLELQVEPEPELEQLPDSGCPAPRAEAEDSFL
Chain of c-Kit (P10721 26-976): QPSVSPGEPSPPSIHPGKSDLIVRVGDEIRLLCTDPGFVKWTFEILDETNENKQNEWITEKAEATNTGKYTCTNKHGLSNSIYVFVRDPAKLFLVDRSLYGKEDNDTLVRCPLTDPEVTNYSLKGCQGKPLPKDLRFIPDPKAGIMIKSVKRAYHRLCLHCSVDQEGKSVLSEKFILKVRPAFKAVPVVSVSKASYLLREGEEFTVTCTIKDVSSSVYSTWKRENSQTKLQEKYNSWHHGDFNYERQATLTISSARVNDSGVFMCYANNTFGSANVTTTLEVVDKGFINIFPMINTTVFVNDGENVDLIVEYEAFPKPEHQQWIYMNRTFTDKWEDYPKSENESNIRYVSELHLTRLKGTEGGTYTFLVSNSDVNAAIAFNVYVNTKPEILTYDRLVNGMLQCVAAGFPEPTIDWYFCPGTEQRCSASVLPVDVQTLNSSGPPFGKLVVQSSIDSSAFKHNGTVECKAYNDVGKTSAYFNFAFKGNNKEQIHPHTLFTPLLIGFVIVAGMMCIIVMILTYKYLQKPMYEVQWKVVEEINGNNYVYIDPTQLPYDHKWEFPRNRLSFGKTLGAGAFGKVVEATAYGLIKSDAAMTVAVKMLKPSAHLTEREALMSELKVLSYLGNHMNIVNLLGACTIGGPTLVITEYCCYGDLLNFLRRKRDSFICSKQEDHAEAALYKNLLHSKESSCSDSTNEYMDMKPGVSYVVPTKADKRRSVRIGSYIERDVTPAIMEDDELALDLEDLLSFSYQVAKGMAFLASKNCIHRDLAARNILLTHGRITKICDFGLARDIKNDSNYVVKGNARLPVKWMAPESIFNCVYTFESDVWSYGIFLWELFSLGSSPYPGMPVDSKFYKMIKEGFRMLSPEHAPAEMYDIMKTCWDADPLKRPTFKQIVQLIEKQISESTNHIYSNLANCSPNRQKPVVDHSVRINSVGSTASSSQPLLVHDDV
Chain of CSF1R (P07333 20-972): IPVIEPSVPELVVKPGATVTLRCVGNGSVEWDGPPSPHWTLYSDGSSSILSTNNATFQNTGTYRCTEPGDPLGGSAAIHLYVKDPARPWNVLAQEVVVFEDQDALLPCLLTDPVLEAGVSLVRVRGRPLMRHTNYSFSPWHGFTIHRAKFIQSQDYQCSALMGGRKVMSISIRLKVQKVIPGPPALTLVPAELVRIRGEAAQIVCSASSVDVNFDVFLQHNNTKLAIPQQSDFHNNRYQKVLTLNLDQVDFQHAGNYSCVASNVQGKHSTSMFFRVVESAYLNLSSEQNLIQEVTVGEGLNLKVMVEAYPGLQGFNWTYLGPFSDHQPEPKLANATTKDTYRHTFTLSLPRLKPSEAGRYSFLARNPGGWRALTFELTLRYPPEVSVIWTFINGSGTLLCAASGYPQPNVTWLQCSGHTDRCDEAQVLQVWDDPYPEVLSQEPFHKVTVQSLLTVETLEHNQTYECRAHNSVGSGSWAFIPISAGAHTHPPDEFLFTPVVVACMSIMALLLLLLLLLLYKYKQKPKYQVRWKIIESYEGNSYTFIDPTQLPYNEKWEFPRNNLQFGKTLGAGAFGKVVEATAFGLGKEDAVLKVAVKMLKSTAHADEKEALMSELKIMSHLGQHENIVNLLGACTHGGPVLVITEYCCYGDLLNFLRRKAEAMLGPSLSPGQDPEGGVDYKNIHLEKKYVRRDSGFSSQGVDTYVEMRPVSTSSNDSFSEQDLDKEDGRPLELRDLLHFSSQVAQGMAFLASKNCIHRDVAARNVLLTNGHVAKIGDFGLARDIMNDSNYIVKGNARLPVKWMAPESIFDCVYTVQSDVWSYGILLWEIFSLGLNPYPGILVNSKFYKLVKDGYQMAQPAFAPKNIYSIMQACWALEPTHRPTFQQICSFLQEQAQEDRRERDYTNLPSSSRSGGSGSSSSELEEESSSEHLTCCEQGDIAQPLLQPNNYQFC
Chain of PDGFRα (P16234 24-1089): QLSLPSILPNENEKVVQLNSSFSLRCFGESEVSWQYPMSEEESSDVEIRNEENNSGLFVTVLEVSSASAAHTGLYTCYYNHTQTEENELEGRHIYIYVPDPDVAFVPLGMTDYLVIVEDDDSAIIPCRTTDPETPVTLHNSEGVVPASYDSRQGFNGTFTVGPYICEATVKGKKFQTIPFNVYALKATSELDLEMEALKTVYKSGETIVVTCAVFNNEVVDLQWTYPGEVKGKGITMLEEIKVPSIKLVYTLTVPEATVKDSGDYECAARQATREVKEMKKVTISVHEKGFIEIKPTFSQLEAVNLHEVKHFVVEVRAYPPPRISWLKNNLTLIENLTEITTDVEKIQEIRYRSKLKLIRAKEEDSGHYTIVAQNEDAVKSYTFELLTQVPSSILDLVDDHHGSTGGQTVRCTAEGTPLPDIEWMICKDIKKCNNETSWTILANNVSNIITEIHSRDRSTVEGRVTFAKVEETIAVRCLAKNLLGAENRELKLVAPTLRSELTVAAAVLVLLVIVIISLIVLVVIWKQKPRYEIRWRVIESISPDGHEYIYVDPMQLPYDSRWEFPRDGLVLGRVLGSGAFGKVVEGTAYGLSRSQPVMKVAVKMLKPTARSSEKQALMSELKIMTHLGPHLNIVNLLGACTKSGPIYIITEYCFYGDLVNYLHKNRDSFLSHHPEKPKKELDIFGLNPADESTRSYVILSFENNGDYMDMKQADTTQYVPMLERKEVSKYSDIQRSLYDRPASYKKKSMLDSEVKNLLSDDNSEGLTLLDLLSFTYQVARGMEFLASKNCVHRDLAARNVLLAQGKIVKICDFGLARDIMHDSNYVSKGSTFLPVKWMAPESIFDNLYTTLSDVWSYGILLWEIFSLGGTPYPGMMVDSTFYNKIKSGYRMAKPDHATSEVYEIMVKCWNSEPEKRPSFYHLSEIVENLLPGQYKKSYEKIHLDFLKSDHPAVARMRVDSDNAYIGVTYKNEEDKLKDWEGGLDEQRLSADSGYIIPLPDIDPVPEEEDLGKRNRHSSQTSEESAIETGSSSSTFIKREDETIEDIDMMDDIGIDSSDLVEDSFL

Row | Compound | pIC50 [1] | pIC50 [2] | pIC50 [3] | pIC50 [4] | pIC50 [5] | pIC50 [6]
1 | Cc1cc(F)c(C(=O)Nc2ccc(C3(C#N)CC3)cn2)cc1NC(=O)c1cnc(N)s1 [Example 118, 2-Amino-N-[5-[[5-(1-cyanocyclopropyl)pyridin-2-yl]carbamoyl]-4-fluoro-2-methylphenyl]-1,3-thiazole-5-carboxamide] | > 7.00 | 6.00 to 7.00 | < 6.00 | > 7.00 | 6.00 to 7.00 | < 6.00
2 | Cc1cc(F)c(C(=O)NCC(F)(F)F)cc1NC(=O)c1cnc(N)s1 [Example 122, 2-Amino-N-[4-fluoro-2-methyl-5-(2,2,2-trifluoroethylcarbamoyl)phenyl]-1,3-thiazole-5-carboxamide] | > 7.00 | < 6.00 | < 6.00 | > 7.00 | < 6.00 | < 6.00
3 | CO[C@H]1C[C@@H](NC(=O)c2cc(NC(=O)c3cnc(N)s3)c(C)cc2F)C1 [Example 123, 2-Amino-N-[4-fluoro-5-[(3-methoxycyclobutyl)carbamoyl]-2-methylphenyl]-1,3-thiazole-5-carboxamide] | > 7.00 | < 6.00 | < 6.00 | > 7.00 | < 6.00 | < 6.00
4 | Cc1cc(F)c(C(=O)N[C@H]2C[C@@H](F)C2)cc1NC(=O)c1cnc(N)s1 [Example 124, 2-Amino-N-[4-fluoro-5-[(3-fluorocyclobutyl)carbamoyl]-2-methylphenyl]-1,3-thiazole-5-carboxamide] | > 7.00 | < 6.00 | < 6.00 | > 7.00 | < 6.00 | < 6.00
5 | Cc1cc(F)c(C(=O)Nc2ccc(OC3CC3)cn2)cc1NC(=O)c1cnc(N)s1 [Example 129, 2-Amino-N-[5-[(5-cyclopropyloxypyridin-2-yl)carbamoyl]-4-fluoro-2-methylphenyl]-1,3-thiazole-5-carboxamide] | > 7.00 | 6.00 to 7.00 | < 6.00 | > 7.00 | 6.00 to 7.00 | < 6.00
6 | Cc1cc(F)c(C(=O)Nc2ccc(C3CC3)cn2)cc1NC(=O)c1cnc(N)s1 [Example 130, 2-Amino-N-[5-[(5-cyclopropylpyridin-2-yl)carbamoyl]-4-fluoro-2-methylphenyl]-1,3-thiazole-5-carboxamide] | > 7.00 | 6.00 to 7.00 | < 6.00 | > 7.00 | 6.00 to 7.00 | 6.00 to 7.00
7 | COc1ccc(NC(=O)c2cc(NC(=O)c3cnc(N)s3)c(C)cc2F)nc1 [Example 131, 2-Amino-N-[4-fluoro-5-[(5-methoxypyridin-2-yl)carbamoyl]-2-methylphenyl]-1,3-thiazole-5-carboxamide] | > 7.00 | < 6.00 | < 6.00 | > 7.00 | < 6.00 | < 6.00
8 | Cc1cc(F)c(C(=O)Nc2ccccn2)cc1NC(=O)c1cnc(N)s1 [Example 132, 2-Amino-N-[4-fluoro-2-methyl-5-(pyridin-2-ylcarbamoyl)phenyl]-1,3-thiazole-5-carboxamide] | > 7.00 | < 6.00 | < 6.00 | > 7.00 | < 6.00 | < 6.00

Results, then the molecule that gave them:

Row | pIC50 [1] | pIC50 [2] | pIC50 [3] | pIC50 [4] | pIC50 [5] | pIC50 [6] | Compound
9 | > 7.00 | < 6.00 | < 6.00 | > 7.00 | < 6.00 | < 6.00 | Cc1ncc(C(=O)Nc2cc(C(=O)Nc3cnc(N4CCC[C@@H]4C)cn3)c(F)cc2C)s1 [Example 83, N-(5-{N-5-[(S)-2-methyl-1-pyrrolidinyl]-2-pyrazinylcarbamoyl}-4-fluoro-2-tolyl)-2-methyl-1,3-thiazole-5-carboxamide]
10 | > 7.00 | < 6.00 | < 6.00 | > 7.00 | < 6.00 | 6.00 to 7.00 | Cc1ncc(C(=O)Nc2cc(C(=O)Nc3cnc(OCC(F)F)cn3)c(F)cc2C)s1 [Example 86, N-{5-[N-5-(2,2-difluoroethoxy)-2-pyrazinylcarbamoyl]-4-fluoro-2-tolyl}-2-methyl-1,3-thiazole-5-carboxamide]
11 | > 7.00 | < 6.00 | < 6.00 | > 7.00 | < 6.00 | < 6.00 | Cc1ncc(C(=O)Nc2cc(C(=O)Nc3cnc(OCC(F)(F)F)cn3)c(F)cc2C)s1 [Example 89, N-{5-[N-5-(2,2,2-trifluoroethoxy)-2-pyrazinylcarbamoyl]-4-fluoro-2-tolyl}-2-methyl-1,3-thiazole-5-carboxamide]
12 | > 7.00 | < 6.00 | < 6.00 | > 7.00 | < 6.00 | < 6.00 | Cc1ncc(C(=O)Nc2cc(C(=O)Nc3cnc(N4CCC[C@@H]4C(F)(F)F)cn3)c(F)cc2C)s1 [Example 96, N-[4-fluoro-2-methyl-5-[[5-[(2R)-2-(trifluoromethyl)pyrrolidin-1-yl]pyrazin-2-yl]carbamoyl]phenyl]-2-methyl-1,3-thiazole-5-carboxamide]
13 | > 7.00 | 6.00 to 7.00 | < 6.00 | 6.00 to 7.00 | < 6.00 | < 6.00 | Cc1cc(F)c(C(=O)N[C@H]2CCOC2)cc1NC(=O)c1cnc(NC(=O)N2CCC2)s1 [Example 102, 2-(Azetidine-1-carbonylamino)-N-[4-fluoro-2-methyl-5-[[(3S)-oxolan-3-yl]carbamoyl]phenyl]-1,3-thiazole-5-carboxamide]
14 | > 7.00 | < 6.00 | < 6.00 | > 7.00 | 6.00 to 7.00 | 6.00 to 7.00 | Cc1cc(F)c(C(=O)NCC2(F)CC2)cc1NC(=O)c1cnc(NC(=O)N2CCC2)s1 [Example 103, 2-(Azetidine-1-carbonylamino)-N-[4-fluoro-5-[(1-fluorocyclopropyl)methylcarbamoyl]-2-methylphenyl]-1,3-thiazole-5-carboxamide]
15 | > 7.00 | 6.00 to 7.00 | < 6.00 | > 7.00 | 6.00 to 7.00 | 6.00 to 7.00 | Cc1cc(F)c(C(=O)Nc2ccc3c(n2)COCC3)cc1NC(=O)c1cnc(N)s1 [Example 114, 2-Amino-N-[5-(6,8-dihydro-5H-pyrano[3,4-b]pyridin-2-ylcarbamoyl)-4-fluoro-2-methylphenyl]-1,3-thiazole-5-carboxamide]
16 | > 7.00 | 6.00 to 7.00 | < 6.00 | > 7.00 | < 6.00 | < 6.00 | Cc1cc(F)c(C(=O)Nc2ccc3c(n2)CCOC3)cc1NC(=O)c1cnc(N)s1 [Example 115, 2-Amino-N-[5-(7,8-dihydro-5H-pyrano[4,3-b]pyridin-2-ylcarbamoyl)-4-fluoro-2-methylphenyl]-1,3-thiazole-5-carboxamide]
17 | > 7.00 | < 6.00 | < 6.00 | > 7.00 | < 6.00 | < 6.00 | Cc1cc(F)c(C(=O)Nc2ccc(O[C@H]3CCOC3)cn2)cc1NC(=O)c1cnc(N)s1 [Example 117, 2-Amino-N-[4-fluoro-2-methyl-5-[[5-[(3S)-oxolan-3-yl]oxypyridin-2-yl]carbamoyl]phenyl]-1,3-thiazole-5-carboxamide]
